Columns and labels:
[1] = test system: hematopoietic system (5-FU toxicity); test: Acyl derivatives of uridine i.p. vs bone marrow toxicity of 5-FU (Example 3); type: in vivo, female Balb/C mice; details: for Spleen weights: day eleven after 5-FU, in mg; for Spleen weight: day seven after 5-FU 150 mg/kg i.p., i.p. doses equimolar to uridine 300 mg/kg/treatment; for HCT % / Lym / Neut / RBC / WBC: eleven days after 5-FU
Protocol: Ninety-eight female Balb/C mice weighing approximately 20 grams each were given a one-time 150 mg/kg injection (i.p.) of 5-FU at 1 p.m. on the initial day of the study. […] All of these doses are equimolar, and were administered in a volume of 0.4 ml by i.p. injection. The groups were treated at 3:30, 6:00, and 8:30 p.m. on the initial day with their respective agents. […] On days seven and eleven following 5-FU administration, blood (0.2–0.3 ml) was collected from seven mice in each group by retro-orbital bleeding into EDTA for subsequent differential blood cell counting. Mice were sacrificed by cervical dislocation; their right femurs removed and the contents expelled for cell counting; and their spleens removed and weighed.

[2] = test system: hematopoietic system (Ara-C toxicity); test: DAdC or PdC vs hematopoietic toxicity of arabinosyl cytosine (Example 7); type: in vivo, Balb/C female mice; details: Ara-C 100 mg/kg i.p. daily for five days; DAdC 411 mg/kg p.o. or PdC 200 mg/kg i.p. twice daily
Protocol: Twenty-one Balb/C female mice weighing approximately 20 grams each received a daily intraperitoneal injection of Ara-C (100 mg/kg) for five days. These mice were divided into three treatment groups: oral administration of water (controls); oral administration of DAdC (411 mg/kg/treatment); and intraperitoneal administration of PdC (200 mg/kg/treatment in 0.2% Tween 80). Mice were treated with either water, DAdC, or PdC twice daily, at 9 a.m. and 6 p.m. Treatment volume in each case was 0.2 ml. An additional seven mice received no Ara-C and no treatment at all (basals).
On days seven and eleven following 5-FU administration, blood (0.2–0.3 ml) was collected from the seven mice in each group by retro-orbital bleeding into EDTA for subsequent differential blood cell counting. Mice were sacrificed by cervical dislocation, and their spleens removed and weighed.

[3] = test system: hematopoietic system (5-FU toxicity); test: Octanoyluridine vs hematological toxicity of 5-FU (Example 3A); type: in vivo, Balb/C female mice; details: seven days after 5-FU 75 mg/kg i.p.; Oct-U 100 mg/kg/treatment i.p.
Protocol: Fourteen Balb/C female mice weighing approximately 20 grams each were given a one-time 75 mg/kg i.p. injection of 5-FU at 11:00 a.m. on the initial day of the study. Half of these animals were subsequently treated with Oct-U (100 mg/kg/treatment, i.p.), while the other half (controls) were injected with physiological saline. Administration of Oct-U and saline occurred at 2:30, 4:30, and 7:00 p.m. on the initial day, and at 9:30 a.m., 12:00 noon, 2:30, and 5:00 p.m the following day. An additional group of seven mice (basals) received no 5-FU and no treatments.

[4] = test system: hematopoietic system (AZT toxicity); test: DAdC or THU vs hematopoietic damage by i.p. AZT in Balb/C mice (Example 11); type: in vivo, female Balb/C mice; details: for Total neutrophil counts: day thirteen, AZT + DAdC 300 mg/kg p.o. or THU […] i.p. three times daily
Protocol: AZT (100 mg/kg i.p.) was given three times daily at 9 a.m., 4 p.m., and 10 p.m. to twenty-one female Balb/C mice weighing approximately 20 grams each. […] Treatment volume was 0.2 ml. One group of seven mice was not given AZT or any treatment (basal).
(§1) On day thirteen blood (0.2–0.3 ml) was collected from mice in each group by retro-orbital bleeding-into EDTA for subsequent differential blood cell counting, including reticulocytes. The animals were then sacrificed by cervical dislocation; their right femurs removed and the contents expelled for cell counting; and their spleens removed and weighed.

[5] = test system: CD8F1 spontaneous mammary adenocarcinoma; test: TAU/uridine rescue with 5-FU alone in tumor-bearing mice (Example 5); type: in vivo
Protocol: Sixty CD8F1 (BALB/C×[…]) female mice with first generation transplants of CD8F1 spontaneous mammary adenocarcinoma were treated with a weekly chemotherapy regimen which included a single dose of 5-FU (150 mg/kg) followed by various rescue strategies. The average tumor size was 157 mg at the start of the chemotherapy. The weekly chemotherapy course was completed three times.
In order to evaluate the various rescue therapies, the animals were divided into six groups of ten animals each as follows: […]

[6] = test system: hematopoietic system (AZT toxicity); test: Oral DAdC vs hematopoietic toxicity of i.p. AZT in DBA mice (Example 10); type: in vivo, female DBA mice
Protocol: AZT (100 mg/kg i.p.) was given three times daily at 9 a.m., 4 p.m., and at 10 p.m. to twenty-eight female DBA mice weighing approximately 20 grams each. Three times each day, at 9 a.m., 4 p.m., and 10 p.m., animals were treated with either water (control) or DAdC (411 mg/kg/treatment) by oral intubation. Treatment volume was 0.2 ml. One additional group of fourteen mice was not given AZT or any treatment (basal).
During the first few days of treatment a total of eight mice died from accidents occurring during oral administration of the water and DAdC. Therefore, the number of animals in the control group and the DAdC group were reduced on the days of sacrifice as follows: On day 6 there were four mice in the control group and five in the DAdC group; on day 13 there were seven in the control group and three in the DAdC group. The number of basal animals was seven at both time points.
as §1, with “days six and” for “day”, “bleeding into” for “bleeding-into”

[7] = Toxicity of oral tegafur with TAU or uracil: body weight and blood cell counts (Example 13); type: in vivo, mice; details: alone or with uracil or TAU 4:1 molar
Protocol: Triacetyluridine (TAU), like other acyl derivatives of uridine and cytidine of the invention, is converted to uridine and uracil during and after absorption into the bloodstream; when present at the same time as 5-FU, both uridine and uracil are capable of potentiating 5-FU cytotoxicity. Therefore, the cytotoxicity of oral tegafur+uracil versus tegafur+TAU was assessed. Blood cell counts were utilized as an index of cytotoxicity of 5-FU in the circulation (and by extension, of antitumor potency). Body weight loss was used as an index of gastrointestinal toxicity.
Three groups of mice received tegafur by oral intubation in a dose of 400 mg/kg per mouse. The initial body weight of mice in each group was 19.0±0.6 grams. One of these groups also received uracil in a molar ratio of 4:1 to the tegafur dose, and another group received TAU, also in a 4:1 molar ratio to tegafur. Body weights were monitored. Six days after tegafur administration, blood samples were taken for differential cell counts.
All drugs were administered orally in a single dose. Blood samples were taken for cell counts 6 days after drug administration; body weights were also recorded at this time.

[8] = day seven after 5-FU, equimolar i.p. doses
[9] = AZT for thirteen days + DAdC 300 mg/kg/treatment p.o.
[10] = AZT for six days + oral DAdC 411 mg/kg/treatment
[11] = AZT for thirteen days + oral DAdC 411 mg/kg/treatment
[12] = 6 days after single oral tegafur 400 mg/kg

With valeryluridine [VU] the Spleen weights ([1]; equimolar i.p. doses) was 139.4±8.0, the Spleen weight [1] was 69.1 ± 1.7 mg and the Lymphocyte counts [1, 8] was 6.42±0.49 ×10^3 per microliter. The Platelet counts [1, 8] was 825.7±26.7 ×10^3 per microliter, the Total neutrophil counts [1, 8] was 0.141±0.027 ×10^3 per microliter and the “White blood cell counts” value [1, 8] was 6.57±0.49 ×10^3 per microliter. For the same molecule, the HCT % ([1]; equimolar i.p. doses) was 38.31 ± 0.8 %, the Lym ([1]; equimolar i.p. doses) was 5.2 ± .4 K/μl and the Neut ([1]; equimolar i.p. doses) was “.97 ± K/μl”. For the same molecule, the RBC ([1]; equimolar i.p. doses) was 7.83 ± .1 M/μl and the WBC ([1]; equimolar i.p. doses) was 6.31 ± .42 K/μl.

For palmitoyldeoxycytidine [PdC], the Neut [2] was 1.22 ± .27 K/μl, the PLT [2] was 327 ± 30 K/μl and the Spleen [2] was 126.0 ± 5.3 milligrams. For the same molecule, the WBC [2] was 5.20 ± .35 K/μl.

For `CCCCCCCC(=O)OCC1OC(n2ccc(=O)[nH]c2=O)C(O)C1O` (stereo not shown) [Oct-U], the “overall effect at the dose used” value ([1]; after 5-FU, OU 455 mg/kg/treatment i.p.) was “somewhat detrimental”, the Lym [3] was 4.62 ± .29 thousands per microliter and the Marrow [3] was 7.73 ± .68 thousands per microliter. For the same molecule, the Neut [3] was 1.19 ± .22 thousands per microliter, the PLT [3] was 1243 ± 59 K/μl and the RBC [3] was 8.13 ± .14 M/μl. The Spleen weight [3] was 87.2 ± 3.7 mg and the WBC [3] was 5.96 ± .47 thousands per microliter.

For `O=C1NC(O)CCN1[C@@H]1O[C@H](CO)[C@@H](O)[C@H]1O` (stereo partly shown) [THU, Tetrahydrouridine, reference compound], the Total neutrophil counts [4] was 1.16±0.15.

With ethoxycarbonyluridine [ECU] the Spleen weight [1] was 75.7 ± 5.0 mg, the Lymphocyte counts [1, 8] was 7.19±0.32 ×10^3 per microliter and the “White blood cell counts” value [1, 8] was 7.26±0.31 ×10^3 per microliter. For the same molecule, the HCT % ([1]; equimolar i.p. doses) was 37.54 ± 1.0 %, the Lym ([1]; equimolar i.p. doses) was 4.8 ± .5 K/μl and the Neut ([1]; equimolar i.p. doses) was “.66 ± K/μl”. The RBC ([1]; equimolar i.p. doses) was 7.65 ± .2 M/μl and the WBC ([1]; equimolar i.p. doses) was 5.51 ± .64 K/μl.

In the case of `O=c1[nH]cc(F)c(=O)[nH]1` [5-FU, 5-fluorouracil], the Mortality ([5]; 5-FU 150 mg/kg i.p. weekly x3 + vehicle (oil-water emulsion)) was 10/10 and the Mortality ([5]; 5-FU alone 150 mg/kg i.p. weekly x3, no rescue) was 9/10.

With `CC(=O)OC[C@H]1O[C@@H](n2ccc(N)nc2=O)C[C@@H]1OC(C)=O` [DAdC, diacetyldeoxycytidine] the Neut [2] was 0.42 ± .05 K/μl, the PLT [2] was 728 ± 64 K/μl and the Spleen [2] was 87.8 ± 3.5 milligrams. For the same molecule, the WBC [2] was 5.00 ± .42 K/μl, the RBC ([4]; AZT 100 mg/kg i.p. three times daily for thirteen days + DAdC 300 mg/kg/treatment p.o.) was 8.26 ± .13 and the HCT [4, 9] was 39.51 ± 0.61. For the same molecule, the HGB [4, 9] was 14.97 ± .15, the Retic. [4, 9] was “.059 ± .006” and the Total neutrophil counts [4] was 1.39±0.14. For the same molecule, the HCT [6, 10] was 40.84 ± 1.35, the HGB [6, 10] was 13.96 ± .40 and the RBC [6, 10] was 9.49 ± .32. The Reticulocytes [6, 10] was “.205 ± .075”, the HCT [6, 11] was 41.53 ± 1.17 and the HGB [6, 11] was 13.97. For the same molecule, the RBC [6, 11] was 9.16 ± .32, the Reticulocytes [6, 11] was “.814 ± .069” and the “reduction in bone marrow cellularity vs basals” value ([6]; day six, AZT 100 mg/kg i.p. three times daily + oral DAdC 411 mg/kg/treatment) was 2.5%. It also gave a Platelet counts ([6]; day thirteen, AZT + oral DAdC 411 mg/kg/treatment) of 769±32.

With benzoyluridine [BU] the Spleen weights ([1]; equimolar i.p. doses) was 126.9±12.3, the Platelet counts [1, 8] was 829.6 ×10^3 per microliter and the HCT % ([1]; equimolar i.p. doses) was 36.87 ± 0.6 %. For the same molecule, the Lym ([1]; equimolar i.p. doses) was 5.1 ± .4 K/μl, the Neut ([1]; equimolar i.p. doses) was 1.04 K/μl and the RBC ([1]; equimolar i.p. doses) was 7.62 ± .1 M/μl. The WBC ([1]; equimolar i.p. doses) was 6.20 ± .49 K/μl.

In the case of `O=c1[nH]c(=O)n(C2CCCO2)cc1F` (stereo not shown) [Tegafur], the Body weight [7, 12] was 18.2 ± 0.7 grams, the Neutrophils [7, 12] was 0.40 ± 0.085 K/μl and the Platelets [7, 12] was 956 ± 30 K/μl. For the same molecule, the “loss of body weight compared to untreated (basal) animals” value ([7]; oral tegafur 400 mg/kg) was 7%.
